# Source: patent publication US20070275368A1, “Posh Associated Kinases And Related Methods” (PROTEOLOGICS, LTD., priority 2003, published 2007)
# Assays:
# HIV-1 [1] = conditions: H89 50 μM, HeLa SS6 cells transfected with pNLenv-1, 20 minutes after shift to 37° C.
# Method: HeLa SS6 cells were transfected with pNLenv-1PTAP or pNLenv-1ATAA (L-domain mutant). Eighteen hours post-transfection, cells were transferred to 20° C. for two hours in order to inhibit transport of viral particles from the trans-Golgi (TGN) to the plasma membrane (PM). Subsequently, the PKA inhibitor, H89 (50 μM) (Biosource, Cat. No. PHZ1114) or DMSO were added to the cells and dishes were transferred to 37° C. to initiate transport from the TGN to the PM. Reverse transcriptase activity was assayed from virus-like-particles collected from cell supernatant twenty minutes later.
# For transfections, HeLa SS6 cells were grown to 100% confluency in DMEM containing 10% FCS without antibiotics. Cells were then transfected with HIV-1NLenv1 (2 μg per 6-well) (Schubert et al., 1995).
# Virus and virus-like particle (VLP) release by reverse transcriptase activity was determined one day after transfection with the pro-viral DNA as previously described (Adachi et al., 1986; Fukumori et al., 2000; Lenardo et al., 2002). The culture medium of virus-expressing cells was collected and centrifuged at 500×g for 10 minutes. The resulting supernatant was passed through a 0.45 μm-pore filter and the filtrate was centrifuged at 14,000×g for 2 hours at 4° C. […]
# HIV-1 [2] = conditions: Cartier et al., 2003; cited from earlier work
# [3] = system: T1, Bacterially expressed recombinant maltose-binding-protein (MBP)-hPOSH
# T1 sequence: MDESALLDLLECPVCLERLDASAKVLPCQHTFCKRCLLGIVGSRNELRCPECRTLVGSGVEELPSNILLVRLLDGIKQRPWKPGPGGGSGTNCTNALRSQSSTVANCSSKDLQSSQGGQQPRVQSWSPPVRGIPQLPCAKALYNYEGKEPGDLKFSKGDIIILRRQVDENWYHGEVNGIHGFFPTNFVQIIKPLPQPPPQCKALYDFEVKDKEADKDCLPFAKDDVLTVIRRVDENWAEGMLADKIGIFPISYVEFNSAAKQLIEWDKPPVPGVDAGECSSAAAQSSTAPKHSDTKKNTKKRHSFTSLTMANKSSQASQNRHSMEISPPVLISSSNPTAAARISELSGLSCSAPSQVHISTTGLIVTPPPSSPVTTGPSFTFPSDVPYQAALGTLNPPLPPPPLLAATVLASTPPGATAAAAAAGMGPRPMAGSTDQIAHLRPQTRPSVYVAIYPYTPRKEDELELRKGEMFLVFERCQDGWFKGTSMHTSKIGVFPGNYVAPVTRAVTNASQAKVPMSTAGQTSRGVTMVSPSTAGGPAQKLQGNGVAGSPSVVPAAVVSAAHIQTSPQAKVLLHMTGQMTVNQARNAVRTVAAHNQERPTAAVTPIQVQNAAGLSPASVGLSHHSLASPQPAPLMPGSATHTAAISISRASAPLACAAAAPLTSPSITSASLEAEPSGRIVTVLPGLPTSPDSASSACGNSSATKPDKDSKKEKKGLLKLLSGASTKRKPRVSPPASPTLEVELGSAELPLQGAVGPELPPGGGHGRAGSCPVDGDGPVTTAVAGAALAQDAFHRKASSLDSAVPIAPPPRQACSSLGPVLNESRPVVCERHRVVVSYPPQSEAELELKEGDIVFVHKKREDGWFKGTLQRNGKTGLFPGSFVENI
Compound,inhibition of RT activity of virus-like-particles collected from cell supernatant (HIV-1 [1]),block of HIV-1 release from cells (HIV-1 [2]),phosphorylation of hPOSH (immunoblot with PKA-substrate phospho-specific antibody) [3]
"O=S(=O)(NCCNCC=Cc1ccc(Br)cc1)c1cccc2cnccc12 [H89, N-[2-((Pbromocinnamyl)amino)ethyl]isoquinolinesulfonamide]",complete inhibition,able to block HIV-1 release from cells,–
PKA catalytic subunit (PKAc),–,–,POSH is phosphorylated by PKA
